Where two headings read alike, the source gives them in different places. Where a SMILES comes first, the peptide text is derived from it. [ ]: non-standard residue; d: D form. Arg(Me) = CNC(=N)NCCC[C@H](N)C(=O)O; Hyp = O=C(O)[C@@H]1C[C@@H](O)CN1; azaGly = NNC(=O)O
Columns and labels:
[1] = In vitro distribution into blood cells, humans; type: in vitro ADME
Experimental: (§1) The in vitro distribution ratios of [^14C]API-MA into the blood cells at the concentrations of 0.01, 0.1, 1, and 10 μg/mL API-FB (free form) were 7.8%, 8.0%, 7.1%, and 4.8% for rats, 2.4%, 2.0%, 1.6%, and 1.2% for dogs, and 2.0%, 0.0%, 0.0%, and 0.5% for humans, respectively. […] The in vitro plasma protein binding ratios of [^14C]API-FB in rats, dogs, monkeys, and humans were determined by the ultracentrifugation method. In addition, the protein binding to human serum albumin (HSA), α1-acid glycoprotein (AGP), and HSA/AGP was investigated. […] In rats and dogs, a slight decrease in the binding ratio at the concentration range between 0.1 and 1.0 μg/mL API-FB was observed. In monkeys and humans, the binding was independent of the drug concentrations from 0.01 to 10 μg/mL API-FB.

[2] = Multiple-dose PK, SC bolus then continuous 13-day SC infusion, healthy European men; details: for Css / AUC(0-t) / Cmax: European men, geometric mean (% CV); for AUC(0-t): AUC (0-tlqc) (equal to AUC (0-24))
Experimental: Another study was a phase 1 clinical study of multiple-dose administration of API-MA. The study was conducted in France. It was a randomized, double-blind, placebo-controlled, parallel-group, ascending dose study of the safety, tolerability, plasma PK, and endocrine pharmacodynamic effects of API-MA administered as an SC bolus (0.1 mg) on day 1 followed by continuous SC infusion (i.e., 24 hr/day) from Day 2 to Day 14 (0.01, 0.1, 0.3, or 1.0 mg/day), which was expected to suppress testosterone.

[3] = tested on: 127 enzyme and radio ligand binding assays; test: Series of 127 enzyme and radio ligand binding assays; details: 10 μmol/L
human KISS1R [4] = target: T1, human KISS1R (Homo sapiens, UniProt Q969F8); test: Intracellular Ca2+ mobilization (fluorometric imaging plate reader), human KISS1R; type: cell-based; set-up: expressed in transfected cells; host or cells: Chinese hamster ovary dihydrofolate reductase negative cells
T1 sequence (Q969F8 whole entry): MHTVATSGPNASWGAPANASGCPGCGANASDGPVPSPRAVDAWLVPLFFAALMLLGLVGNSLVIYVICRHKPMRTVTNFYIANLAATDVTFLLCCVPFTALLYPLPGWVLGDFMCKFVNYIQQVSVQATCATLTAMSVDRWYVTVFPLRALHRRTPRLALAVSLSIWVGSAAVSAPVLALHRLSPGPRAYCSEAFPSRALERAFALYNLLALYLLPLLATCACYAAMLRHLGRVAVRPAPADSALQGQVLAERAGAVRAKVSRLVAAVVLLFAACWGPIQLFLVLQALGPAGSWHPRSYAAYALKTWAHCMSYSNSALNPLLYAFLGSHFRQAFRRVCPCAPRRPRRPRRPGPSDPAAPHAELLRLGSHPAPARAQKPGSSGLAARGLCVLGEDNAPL
Experimental: (§2) The effects of API-MA on intracellular Ca^2+ mobilization in KISS1R-expressing recombinant cells were evaluated by performing the fluorometric imaging plate reader assay.

[5] = In vitro distribution into blood cells, rats; type: in vitro ADME
Experimental: as §1

human KISS1R [6] = target: T1, human KISS1R; test: Competitive binding assay, human KISS1R; set-up: expressed in transfected cells
Text: The binding affinity of API-MA to membrane fractions of KISS1R-expressing recombinant cells was examined in a competitive binding assay.

[7] = PK across species (rats, dogs, monkeys), SC bioavailability; type: in vivo; details: rat, dog, monkey, plasma, read-out: Bioavailability after SC administration
Text: The PK of API-MA was studied in rats, dogs, and monkeys.

serum LH and FSH = test: Multiple-dose pharmacodynamics, continuous SC infusion, European men; type: in vivo, human
Experimental: This study was a phase 1 study of multiple-day, continuous SC infusions of API-MA to 30 healthy European men over age 50. […] Five to six men received active API-MA, and 1 to 2 men received placebo per dose level cohort. The pharmacodynamics of the following hormones were assessed: LH and FSH.
The SC infusion was started 24 hours after the bolus injection; all specimens collected after the 24-hour time point were collected during the SC infusion. Blood specimens were also collected on days 16, 17, 21, 28 and 44 to monitor the return of the hormone concentrations to baseline values.

dog KISS1R = target: T2, dog KISS1R (Canis lupus familiaris, UniProt A0A8I3S0V2); test: Intracellular Ca2+ mobilization (fluorometric imaging plate reader), dog KISS1R; type: cell-based
T2 construct: expressed in transfected cells; host or cells: Chinese hamster ovary dihydrofolate reductase negative cells
T2 sequence (A0A8I3S0V2 1-382): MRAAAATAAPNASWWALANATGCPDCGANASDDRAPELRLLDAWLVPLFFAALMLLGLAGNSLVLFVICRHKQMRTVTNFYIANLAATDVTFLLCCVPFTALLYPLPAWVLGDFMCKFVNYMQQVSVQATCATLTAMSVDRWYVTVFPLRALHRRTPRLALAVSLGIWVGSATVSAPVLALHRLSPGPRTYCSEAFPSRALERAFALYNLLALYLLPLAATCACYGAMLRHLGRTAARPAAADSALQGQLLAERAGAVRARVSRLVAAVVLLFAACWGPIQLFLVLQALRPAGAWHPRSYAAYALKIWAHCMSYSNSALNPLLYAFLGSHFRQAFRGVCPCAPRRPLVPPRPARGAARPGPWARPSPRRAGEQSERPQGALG
Experimental: as §2

serum LH, FSH, E2 = test: Physiological effects in healthy women, follicular phase (Example 11, Part 1); type: in vivo, human
Text: The study population included healthy women, aged 18-35 years, with BMI 18-30 kg/m^2, no medical problems and not taking any medications or hormonal contraception. Three healthy, female subjects were selected and randomized and received a single dose of each of the three study regimens noted below (one regimen per study period). All women were scheduled for three Study D1 Visits (each during the follicular phase of the menstrual cycle). […] The order in which a subject receives one of the three study regimens was determined by a randomization matrix.
The study included a screening visit to collect participants' full medical history and to conduct a general medical examination and blood testing. The three study periods each consisted of three planned study visits per study period (excluding screening and follow-up). Study Day 1 (SD1) Visit of each study period occurred during the follicular phase of the menstrual cycle (days 1-4), and the SD2 and SD3 Visits occurred at 24- and 48-hrs post-dose, respectively (FIG. 14). A follow-up phone call happened 7-10 days post-dose in each study period.
Immediately following dosing, serum LH, FSH, E2 (oestradiol), P (progesterone) and SHBG levels were assessed at 30 minute intervals for up to 14 hours (FIGS. 15A-15C, 16A-16C, 17, 18, 19, 20A, and 20B). These PD variables were also assessed at 24 (Study Day 2) and 48 hours (Study Day 3) post-dose. SHBG changes less rapidly and was measured every 3 hours to reduce blood volume.
Up to 3 mL of blood volume were required for measurement of serum reproductive hormone levels (LH, FSH, E2 and P). Blood samples for serum analysis were collected in plain Vacutainer tubes (Beckton Dickson, Franklin Lakes, N.J., USA), and spun after clotting (˜1 hour at room temperature) for 10 minutes at 3000 rpm. Serum was then stored in a locked freezer at −20° C. until assay of serum reproductive hormone levels.

[8] = rat, in vivo; cited from earlier work
[9] = male, human, plasma, sc, 0.1 mg, SC bolus 0.1 mg on Day 1, dosing group 0.01 mg/day
[10] = male, human, plasma, sc, 0.1 mg, SC bolus 0.1 mg on Day 1, dosing group 0.1 mg/day
[11] = male, human, plasma, sc, 0.1 mg, SC bolus 0.1 mg on Day 1, dosing group 0.3 mg/day
[12] = male, human, plasma, sc, 0.1 mg, SC bolus 0.1 mg on Day 1, dosing group 1.0 mg/day

What does the source list for `CC(=O)O.CNC(=N)NCCC[C@H](NC(=O)[C@H](CC(C)C)NC(=O)NNC(=O)[C@H](Cc1ccccc1)NC(=O)[C@@H](NC(=O)[C@H](CC(N)=O)NC(=O)[C@@H]1C[C@@H](O)CN1C(=O)[C@@H](Cc1ccc(O)cc1)NC(C)=O)[C@@H](C)O)C(=O)N[C@@H](Cc1c[nH]c2ccccc12)C(N)=O` [API-MA, 2-(N-Acetyl-D-tyrosyl-trans-4-hydroxy-L-prolyl-Lasparaginyl-L-threonyl-L-phenylalanyl)-hydrazinocarbonyl-L-leucyl-Nω-methyl-L-arginyl-L-tryptophanamide monoacetate] (Ac-[dY][Hyp]NTF[azaGly]L[Arg(Me)]W-NH2)?
Distribution ratio into blood cells ([1]; 0.01 μg/mL API-FB): 2.0%; Distribution ratio into blood cells ([1]; 0.1 μg/mL API-FB): 0.0%; Distribution ratio into blood cells ([1]; 1 μg/mL API-FB): 0.0%; Distribution ratio into blood cells ([1]; 10 μg/mL API-FB): 0.5%; Css ([2]; continuous 13-day SC INF 0.01 mg/day (Days 2-14)): 20.2 (34) pg/mL; Css ([2]; continuous 13-day SC INF 0.1 mg/day (Days 2-14)): 226 (17) pg/mL; Css ([2]; continuous 13-day SC INF 0.3 mg/day (Days 2-14)): 708 (19) pg/mL; Css ([2]; continuous 13-day SC INF 1.0 mg/day (Days 2-14)): 2280 (16) pg/mL; CL/F ([2]; male, human, plasma, sc, 0.01 mg/day): 343 mL/min; Tmax ([2]; male, human, plasma, sc, 0.1 mg): 30 min; AUC(0-t) [2, 9]: 5.08 ng·h/mL; AUC(0-t) [2, 10]: 4.28 ng·h/mL; AUC(0-t) [2, 11]: 4.68 ng·h/mL; AUC(0-t) [2, 12]: 4.05 ng·h/mL; Cmax [2, 9]: 1.87 ng/mL; Cmax [2, 10]: 1.59 ng/mL; Cmax [2, 11]: 1.65 ng/mL; Cmax [2, 12]: 1.29 ng/mL; CL/F ([2]; male, human, plasma, sc, 0.1 mg/day): 308 mL/min; CL/F ([2]; male, human, plasma, sc, 0.3 mg/day): 295 mL/min; CL/F ([2]; male, human, plasma, sc, 1 mg/day): 305 mL/min; Inhibitory effect in enzyme and receptor binding assays [3]: did not show any significant inhibitory effect; EC50 (human KISS1R [4]): 266 pM; Ratio of EC50 of API-MA to kisspeptin (45-54) (human KISS1R [4]; human KISS1R): 0.85; Distribution ratio into blood cells ([5]; 0.01 μg/mL API-FB): 7.8%; Distribution ratio into blood cells ([5]; 0.1 μg/mL API-FB): 8.0%; Distribution ratio into blood cells ([5]; 1 μg/mL API-FB): 7.1%; Distribution ratio into blood cells ([5]; 10 μg/mL API-FB): 4.8%; IC50 (human KISS1R [6]): 230 pM; bioavailability [7]: > 55%; Time of gonadotropin peak after bolus (serum LH and FSH; 0.1 mg SC bolus on day 1): 24 h; Serum LH and FSH concentrations during prolonged infusion (serum LH and FSH; 13-day SC infusion 0.01 to 1.0 mg/day): declined to values below baseline; Time of LH and FSH return to baseline values postdose (serum LH and FSH; after 13-day SC infusion): ≤ 7 days; EC50 (dog KISS1R): 2010 pM; Ratio of EC50 of API-MA to kisspeptin (45-54) (dog KISS1R; dog KISS1R): 1.2

What does the source list for `CNC(=N)NCCC[C@H](NC(=O)[C@H](CC(C)C)NC(=O)NNC(=O)[C@H](Cc1ccccc1)NC(=O)[C@@H](NC(=O)[C@H](CC(N)=O)NC(=O)[C@@H]1C[C@@H](O)CN1C(=O)[C@@H](Cc1ccc(O)cc1)NC(C)=O)[C@@H](C)O)C(=O)N[C@@H](Cc1c[nH]c2ccccc12)C(N)=O` [Compound 1, 2-(N-Acetyl-D-tyrosyl-trans-4-hydroxy-L-prolyl-L-asparaginyl-L-threonyl-L-phenylalanyl)-hydrazinocarbonyl-L-leucyl-Nω-methyl-L-arginyl-L-tryptophanamide] (Ac-[dY][Hyp]NTF[azaGly]L[Arg(Me)]W-NH2)?
FSH response (serum LH, FSH, E2): very low compared to the LH response; Time of peak serum LH post-dosing (serum LH, FSH, E2; 0.003 nmol/kg SC): 14 to 36 h; Duration of LH surge (serum LH, FSH, E2; 0.03 nmol/kg SC): approximately 14 hours; End of LH surge after administration (serum LH, FSH, E2; 0.03 nmol/kg SC): 28 h; Time of peak serum LH after administration (serum LH, FSH, E2; 0.03 nmol/kg SC): 18 to 20 h; bioavailability [8]: 66.3%

— patent US11013780B2, “Methods of treating female infertility” (Myovant Sciences GmbH, priority 2016, dated 2021)
